Test results reported in patent publication US20140094370A1, “FORMULATION COMPONENT” (SYNGENTA LIMITED, priority 2011, published 2014).

Legend:
[1] = test system: Chenopodium album (CHEAL), Abutilon theophrasti (ABUTH), Setaria viridis (SETVI) and Xanthium strumarium (XANST); test: Glasshouse herbicide efficacy test of fomesafen compositions with adjuvant against four weed species; assay type: in vivo; settings: mean over fomesafen 60 and 120 g/ha, three replicates, four weed species, 2, 7 and 14 days after application; adjuvant 0.5% v/v; 200 liters per hectare
Procedure: (§1) The aromatic ester bis-2-ethylhexyl phthalate was tested as an adjuvant in compositions of fomesafen, in a glasshouse against four weed species. An agrochemical composition was prepared containing 0.5% v/v of the adjuvant in a track sprayer and was applied at a volume of 200 liters per hectare. Fomesafen was applied at a rate of either 60 or 120 grams per hectare. The adjuvant oils were emulsified using a small amount of the surfactant Pluronic® PE 10500, which was present in the composition at a concentration of 0.02% v/v. The weed species and their growth stage at spraying were Chenopodium album (CHEAL; growth stage 14), Abutilon theophrasti (ABUTH; growth stage 12), Setaria viridis (SETVI; growth stage 13), and Xanthium strumarium (XANST; growth stage 12).
Each spray test was replicated three times. The efficacy of the herbicide was assessed visually and expressed as a percentage of the leaf area killed. Samples were assessed at time periods of 2, 7 and 14 days following application. The results shown below in Table 11 are mean averages over the two rates of fomesafen, three replicates, four weed species and the three assessment timings, and are compared to the efficacy of fomesafen without adjuvant and fomesafen with the commercially available adjuvant Turbocharge® (applied at 0.5% v/v).

[2] = test system: Polygonum convolvulus (POLCO), Brachiaria platyphylla (BRAPL), Digitaria sanguinalis (DIGSA) and Amaranthus tuberculatus (AMATU); test: Glasshouse herbicide efficacy test of mesotrione compositions with adjuvant against four weed species; assay type: in vivo
Procedure: as §1, with “mesotrione,” for “fomesafen,”, “Mesotrione” for “Fomesafen”, “at” for “at a rate of”, “Polygonum convolvulus (POLCO;” for “Chenopodium album (CHEAL; growth stage 14), Abutilon theophrasti (ABUTH; growth stage 12), Setaria viridis (SETVI;”, “Brachiaria platyphylla (BRAPL;” for “and Xanthium strumarium (XANST;”, “13)” for “12).”
Digitaria sanguinalis (DIGSA; growth stage 13) and Amaranthus tuberculatus (AMATU; growth stage 13).
Each spray test was replicated three times. The efficacy of the herbicide was assessed visually and expressed as a percentage of the leaf area killed. Samples were assessed at time periods of 7, 14 and 21 days following application. The results shown below in Table 10 are mean averages over the two rates of mesotrione, three replicates, four weed species and the three assessment timings, and are compared to the efficacy of mesotrione in the absence of adjuvant and mesotrione plus the commercial tank mix adjuvant Turbocharge® (applied at 0.5% v/v).

CS(=O)(=O)NC(=O)c1cc(Oc2ccc(C(F)(F)F)cc2Cl)ccc1[N+](=O)[O-] [Fomesafen]
Mean percentage kill (percentage of the leaf area killed), mean across species [1]: 14.3 C %

CS(=O)(=O)c1ccc(C(=O)C2C(=O)CCCC2=O)c([N+](=O)[O-])c1 [Mesotrione]
Mean percentage kill (percentage of the leaf area killed), mean across species ([2]; mean over mesotrione 60 and 120 g/ha, three replicates, four weed species, 7, 14 and 21 days after application, adjuvant 0.5% v/v, 200 liters per hectare): 49.6 B %

CCCCC(CC)COC(=O)c1ccccc1C(=O)OCC(CC)CCCC (stereo not drawn) [bis-2-ethylhexylphthalate, Bis(2-ethylhexyl) phthalate]
Adjuvant effect on efficacy of the herbicide (in words) ([2]; adjuvant 0.5% v/v with mesotrione, versus mesotrione without adjuvant): increases the efficacy of the herbicide mesotrione
